System: liver fibrosis gene panel (770 genes)
Assay: Nanostring nCounter Fibrosis panel gene expression in liver of DEN-injected mice
Type: in vivo, mouse
Method: Nanostring Analysis. RNA was extracted from paired liver and tumor tissue from vehicle, Compound I-1 (100 mg/kg) and Compound I-32 (100 mg/kg) treated mice using an RNeasy kit (Qiagen, Calif., USA) as per manufacturer's protocol. All RNA samples passed the BioAnalyzer quality control test. The expression of target genes in liver and tumor were analyzed using the nCounter Fibrosis and Cancer Panel (NanoString Technologies, Inc., WA, USA), respectively according to manufacturer's protocol at the McMaster Genomics Facility. Technical and biological normalization against global geometric mean was performed in nSolver 4.0 software (NanoString Technologies). Technical normalization was performed in the nSolver software (version 4.0.70) by normalizing sample target raw counts to the geometric mean of positive control spike-ins. Biological normalization was performed by normalizing sample target raw counts to the geometric mean of selected housekeeping genes (Ppia, Nubp1, Nol7, Armh3, Rplp0, Cnot10, Pgk1, and Acad9). Pathway scores were calculated as the first principal component of the normalized expression values for all genes in each pathway and samples were compiled according to experimental groups to determine average pathway scores. Statistical significance was calculated between experimental groups using multiple t-tests and p-values were corrected for multiple comparisons using Benjamin-Hochberg false discovery rate.
Molecular analysis. To identify the pathways modulated in the liver and tumor tissue, nanostring analysis of fibrosis and cancer, pathways, respectively were completed in an n=8 mice treated with vehicle or Compound I-32 or Compound I-1 at 100 mg/kg.

CC(C)(CCCCc1ccc(CCCCC(C)(C)C(=O)O)cc1)C(=O)O [Compound I-1, 6-[4-(5-carboxy-5-methylhexyl)-phenyl]-2,2-dimethylhexanoic acid]
number of genes downregulated (100 mg/kg, 4 weeks): 170 | number of genes upregulated (100 mg/kg, 4 weeks): 86 | number of genes with altered expression relative to vehicle controls (770 genes measured) (100 mg/kg, 4 weeks): 256 | Casp7 Log2FC (NM_00761-1, 100 mg/kg, vs vehicle): −0.522 | Adh1 Log2FC (NM_007409, 100 mg/kg, vs vehicle): 0.603 | Aldh3a2 Log2FC (NM_007437, 100 mg/kg, vs vehicle): 1.1 | Ap1s1 Log2FC (NM_007457, 100 mg/kg, vs vehicle): 0.242 | Apoa4 Log2FC (NM_007468, 100 mg/kg, vs vehicle): −4.07 | Ctnnb1 Log2FC (NM_007614, 100 mg/kg, vs vehicle): −0.17 | Cd36 Log2FC (NM_007643, 100 mg/kg, vs vehicle): 1.32 | Cdh2 Log2FC (NM_007664, 100 mg/kg, vs vehicle): −0.164 | Cebpa Log2FC (NM_007678, 100 mg/kg, vs vehicle): −0.363 | Cfi Log2FC (NM_007686, 100 mg/kg, vs vehicle): −0.56 | Chil1 Log2FC (NM_007695, 100 mg/kg, vs vehicle): 2.06 | Col1a1 Log2FC (NM_007742, 100 mg/kg, vs vehicle): −1.21 | Col1a2 Log2FC (NM_007743, 100 mg/kg, vs vehicle): −0.924 | Cox6a1 Log2FC (NM_007748, 100 mg/kg, vs vehicle): 0.432 | Cox7c Log2FC (NM_007749, 100 mg/kg, vs vehicle): 0.501 | Crp Log2FC (NM_007768, 100 mg/kg, vs vehicle): −0.931 | Cybb Log2FC (NM_007807, 100 mg/kg, vs vehicle): −0.522 | Cyp7a1 Log2FC (NM_007824, 100 mg/kg, vs vehicle): −1.07 | Eef2k Log2FC (NM_007908, 100 mg/kg, vs vehicle): 0.422 | Ephx2 Log2FC (NM_007940, 100 mg/kg, vs vehicle): 0.794 | F5 Log2FC (NM_007976, 100 mg/kg, vs vehicle): −0.363 | Fas Log2FC (NM_007987, 100 mg/kg, vs vehicle): 0.528 | Fasn Log2FC (NM_007988, 100 mg/kg, vs vehicle): 0.831 | Slc37a4 Log2FC (NM_008063, 100 mg/kg, vs vehicle): −1.17 | Gas1 Log2FC (NM_008086, 100 mg/kg, vs vehicle): −0.608 | Gpc4 Log2FC (NM_008150, 100 mg/kg, vs vehicle): −0.469 | Gpr65 Log2FC (NM_008152, 100 mg/kg, vs vehicle): −0.447 | Hadh Log2FC (NM_008212, 100 mg/kg, vs vehicle): 0.28 | Hmgcs2 Log2FC (NM_008256, 100 mg/kg, vs vehicle): 0.291 | Hsd11b1 Log2FC (NM_008288, 100 mg/kg, vs vehicle): −1.33 | Hsd17b4 Log2FC (NM_008292, 100 mg/kg, vs vehicle): 0.637 | Hsp90ab1 Log2FC (NM_008302, 100 mg/kg, vs vehicle): 0.407 | Irf8 Log2FC (NM_008320, 100 mg/kg, vs vehicle): −0.55 | ll10ra Log2FC (NM_008348, 100 mg/kg, vs vehicle): −0.737 | Irf1 Log2FC (NM_008390, 100 mg/kg, vs vehicle): −0.32 | Itch Log2FC (NM_008395, 100 mg/kg, vs vehicle): −0.277 | Lpl Log2FC (NM_008509, 100 mg/kg, vs vehicle): 1.98 | Lrp1 Log2FC (NM_008512, 100 mg/kg, vs vehicle): −0.339 | Cd180 Log2FC (NM_008533, 100 mg/kg, vs vehicle): −0.776 | Masp1 Log2FC (NM_008555, 100 mg/kg, vs vehicle): −0.24 | Anapc1 Log2FC (NM_008569, 100 mg/kg, vs vehicle): −0.378 | Mmp12 Log2FC (NM_008605, 100 mg/kg, vs vehicle): −1.53 | Mmp14 Log2FC (NM_008608, 100 mg/kg, vs vehicle): −0.522 | Ncf4 Log2FC (NM_008677, 100 mg/kg, vs vehicle): −0.746 | Nedd8 Log2FC (NM_008683, 100 mg/kg, vs vehicle): 0.139 | Nfkb1 Log2FC (NM_008689, 100 mg/kg, vs vehicle): −0.241 | Pcx Log2FC (NM_008797, 100 mg/kg, vs vehicle): −0.57 | Plcb3 Log2FC (NM_008874, 100 mg/kg, vs vehicle): −0.321 | Plg Log2FC (NM_008877, 100 mg/kg, vs vehicle): −0.393 | Ppm1a Log2FC (NM_008910, 100 mg/kg, vs vehicle): 0.148 | Map2k1 Log2FC (NM_008927, 100 mg/kg, vs vehicle): −0.145 | Psmc3 Log2FC (NM_008948, 100 mg/kg, vs vehicle): 0.145 | Rac1 Log2FC (NM_009007, 100 mg/kg, vs vehicle): −0.093 | Saa1/2 Log2FC (NM_009117, 100 mg/kg, vs vehicle): −3.03 | Scd1 Log2FC (NM_009127, 100 mg/kg, vs vehicle): 0.478 | Sem1 Log2FC (NM_009169, 100 mg/kg, vs vehicle): 0.385 | Spp1 Log2FC (NM_009263, 100 mg/kg, vs vehicle): −0.879 | Ssr4 Log2FC (NM_009279, 100 mg/kg, vs vehicle): −0.321 | Tgfbr1 Log2FC (NM_009370, 100 mg/kg, vs vehicle): −0.445 | Traf2 Log2FC (NM_009422, 100 mg/kg, vs vehicle): −0.247 | Tnfsf10 Log2FC (NM_009425, 100 mg/kg, vs vehicle): −0.823

Reference: US11730712B2, “Functionalized long-chain hydrocarbon mono- and di-carboxylic acids and derivatives thereof, and their use for the prevention or treatment of disease” (ESPERVITA THERAPEUTICS, INC., priority 2021, dated 2023)
